Measured values as given in patent US20100093655A1 (priority 2007, published 2010).
Like-named read-outs stand apart in the source and are kept apart here. Marks after values point to notes of the source that are not given here.

Tests used:
[1] = system: lymphocytes of a patient suffering from AIDS; experiment: Apoptosis test (annexin V / propidium iodide, flow cytometry); assay type: cell-based, human; conditions: after 13 days; 10^-7-10^-8 M
Procedure: The apoptotic cells were measured using propidium iodide and FITC-labeled annexin V, which is a phospholipid-binding protein that binds preferentially to the phosphatidylserine exposed at the surface of the cells in the initial phase of apoptosis, by means of a commercially available kit (Immunotech, Marseille, France). The cells that were propidium-iodide-negative and annexin-V-positive were identified as being apoptotic cells, whereas those that were positive for both propidium iodide and annexin V were considered to be pre-necrotic cells. […] Counting of T cells having CD4+ and CD8+ phenotypes, of the Ki-67 activation marker and of annexin V was carried out by flow cytometry analysis (FACScan, Becton Dickenson, San José, Calif., USA). A series of monoclonal antibodies directed against the following surface markers of T cells was used: CD4-PerCP, CD8-PE (Becton Dickinson, France), Ki-67-FITC (Pharmingen, Los Angeles, Calif., USA), Annexin-FITC (Immunotech, Marseille, France).

Ki-67 antigen = experiment: Expression of the Ki-67 antigen (flow cytometry); assay type: cell-based, human
FAS (CD95/APO-1) = experiment: Apoptosis induced by the anti-FAS antibody (annexin V expression); assay type: cell-based, human; conditions: lymphocytes of patient two
Procedure: The apoptotic cells were measured using propidium iodide and FITC-labeled annexin V, which is a phospholipid-binding protein that binds preferentially to the phosphatidylserine exposed at the surface of the cells in the initial phase of apoptosis, by means of a commercially available kit (Immunotech, Marseille, France). The cells that were propidium-iodide-negative and annexin-V-positive were identified as being apoptotic cells, whereas those that were positive for both propidium iodide and annexin V were considered to be pre-necrotic cells. The apoptosis caused by the anti-FAS monoclonal antibody (CD95/APO-1) (Immunotech, Marseille, France) was thus measured since it is well known that Fas/Fas ligand apoptosis is amplified in AIDS disease.
Counting of T cells having CD4+ and CD8+ phenotypes, of the Ki-67 activation marker and of annexin V was carried out by flow cytometry analysis (FACScan, Becton Dickenson, San José, Calif., USA). A series of monoclonal antibodies directed against the following surface markers of T cells was used: CD4-PerCP, CD8-PE (Becton Dickinson, France), Ki-67-FITC (Pharmingen, Los Angeles, Calif., USA), Annexin-FITC (Immunotech, Marseille, France).
As indicated above, it is well established that the lymphocytes of HIV-1-infected patients are sensitive to apoptosis induced by the expression of FAS (CD95/APO-1) and of its agonist, the anti-FAS antibody.

IL-15 gene = experiment: Detection of cytokines by real-time PCR; assay type: cell-based; conditions: real-time PCR (FIG. 8)
Procedure: (§1) Using real-time PCR, 2 μg of total RNA is first reverse-transcribed by means of a kit (High Capacity cDNA Archive kit PN: 4322171, Applied Biosystems, Foster City, Calif.) using random primers and the MultiScribe RT enzyme (5 U/μl) for 2 hours at 37° C. The method of labeling with a SYBR Green, a fluorescent molecule which intercalates into the minor groove of the double helix, was used. The reaction is carried out using a thermocycler (ABI prism 7900 HT, Applied Biosystems, Foster City, Calif.). Each point studied was composed of 5 μl of SYBR Green PCR Master Mix (PN:4344463; Applied Biosystems, Foster City, Calif.), 0.3 μl of sense and antisense primer at a concentration of 10 μM (Proligo), 3.4 μl of Rnase-free water and 1 μl of cDNA. After a denaturation step at 95° C. for 15 min, the amplification is carried out after 40 cycles at 95° C. for 15 s, 60° C. for 30 s and 72° C. for 30 s. At the end of the PCR, a dissociation step corresponding to the amplification peak, which takes place in a cycle of 95° C. for 15 s, 60° C. for 15 s and 95° C. for 15 s, verifies the validity of the primers. The primers for all the genes studied were chosen according to the Oligo Explorer 1.1 amplification conditions. The samples were studied in duplicate in the presence of a negative control, composed of Master Mix and the primers, but without the cDNA. Glyceraldehyde phosphate dehydrogenase (GAPDH) was used as endogenous control gene.
(§2) The effect of the treatments on the levels of mRNA of interest is studied using the method of comparison of CTs (Peinnequin et al., 2004) or number of cycles necessary to reach a threshold fluorescence value (software SDS 2.1, AB prism).
(§3) The sequences of the primers used are the following (Proligo LLC, Boulder, Colo., USA) (forward-reverse): […]

Toll receptor 3 gene = experiment: Detection of cytokines by real-time PCR; assay type: cell-based; conditions: real-time PCR (FIG. 8)
Procedure: as §1, §2, §3

interferon-α gene = experiment: Detection of cytokines by real-time PCR; assay type: cell-based; conditions: real-time PCR (FIG. 8)
Procedure: as §1, §2, §3

interferon-β gene = experiment: Detection of cytokines by real-time PCR; assay type: cell-based; conditions: real-time PCR (FIG. 8)
Procedure: as §1, §2, §3

IL-15 = experiment: Measurement of interleukin-15 production (ELISA of supernatant); assay type: cell-based; conditions: riluzole 10^-8 M, culture supernatant, without riluzole 1
[2] = system: TG 180 line (Crocker sarcoma tumor); experiment: Inhibition of tumor cell proliferation (3H thymidine incorporation); assay type: cell-based; conditions: 120 h, 5 days (FIG. 9a)
Description: (§4) After 5 days, the proliferation of the cells is estimated by tritiated (3H) thymidine incorporation. Other tumor lines were used, namely the H9 line (T lymphoma), the NB4 line (line derived from an acute promyelocytic leukemia) and the Jurkat line (T-lymphoma-derived lymphoblastic T cell line).

H9 line = experiment: Inhibition of tumor cell proliferation; assay type: cell-based; conditions: H9 line (FIG. 9d)
Description: as §4

Jurkat line = experiment: Inhibition of tumor cell proliferation; assay type: cell-based; conditions: Jurkat line (FIG. 9b)
Description: as §4

NB4 line = experiment: Inhibition of tumor cell proliferation; assay type: cell-based; conditions: NB4 line (FIG. 9c)
Description: as §4

HIV-1 = conditions: for viral RNA expressed, more than the control: patient two, no therapy; for Viral RNA Number of copies/ml: after 6 days (day 12-18)
HIV-1 proviral DNA = experiment: Proviral DNA, modified Muprovama test; conditions: for Log of proviral HIV DNA: riluzole 0.1 μM (+), mean ± S.D.; for Proviral DNA Number of copies/10^6 cells: after 6 days (day 12-18)
[3] = system: lymphocytes of patients suffering from AIDS; assay type: cell-based, human; conditions: for Cell survival rate (×100%): day 18 vs day 12
[4] = system: lymphocytes of patients suffering from AIDS; assay type: cell-based, human; conditions: after 6 days (day 12-18)

## Nc1nc2ccc(OC(F)(F)F)cc2s1 [riluzole, 6-(trifluoromethoxy)-2-aminobenzothiazole]
[1]
  inhibition of apoptosis of CD4 lymphocytes: 80%
  inhibition of apoptosis of CD8 lymphocytes: 70%
  inhibition of total apoptosis expressed by all the lymphocytes: 66%
Ki-67 antigen; after 13 days in the presence of riluzole (FIG. 6A)
  inhibition of Ki-67 antigen expression by all of the lymphocytes: ~33%
Ki-67 antigen; after 13 days in the presence of riluzole (FIG. 6B)
  inhibition of Ki-67 antigen expression by the CD8 lymphocytes: ~37%
Ki-67 antigen; after 13 days in the presence of riluzole (FIG. 6C)
  inhibition of Ki-67 antigen expression by the CD4 lymphocytes: ~50%
FAS (CD95/APO-1); Homo sapiens, Lymphocyte, 10^-8 M
  inhibition at 0.01 µM: 62%
FAS (CD95/APO-1); 10^-8 M, control 50%
  apoptosis (annexin V expression) of cells coupled to anti-FAS antibody: 15%
FAS (CD95/APO-1); compared with the 62% inhibition with antibody
  percentage inhibition of apoptosis, cells cultured without anti-FAS antibody: comparable
IL-15 gene
  expression of the IL-15 gene: capable of inducing the expression
Toll receptor 3 gene
  expression of the Toll receptor 3 gene: capable of inducing the expression
interferon-α gene
  expression of the interferon-α gene: capable of inducing the expression
interferon-β gene
  expression of the interferon-β gene: capable of inducing the expression
IL-15
  production of IL-15: 6 pg/mL
IL-15; listed as Riluzole
  production of IL-15: 15* pg/ml
[2]; 10^-4 M
  inhibition at 100 µM: 86%
[2]; 10^-5 M (first mention)
  inhibition at 10 µM: 40%
[2]; 10^-5 M (second mention)
  inhibition at 10 µM: 30%
H9 line
  inhibition of the proliferation of tumor cells: inhibition of the proliferation of these tumor cells is also observed
Jurkat line
  inhibition of the proliferation of tumor cells: inhibition of the proliferation of these tumor cells is also observed
NB4 line
  inhibition of the proliferation of tumor cells: inhibition of the proliferation of these tumor cells is also observed
HIV-1; patient one, 10^-7 M, days 3 and 6 of culture
  virus measurement versus control: virtually the same
HIV-1; patient one, 10^-7 M, days 10 and 13 (FIG. 1C)
  HIV-1 RNA of conditioned cultures versus controls: twice as high
HIV-1; day 13 (FIG. 3C)
  viral RNA expressed, more than the control: up to 0.7 log10
HIV-1; from the 6th day, doses 10^-8 M, 10^-7 M and 10^-8 M as printed
  viral RNA expressed, more than the control: 0.8 logn
HIV-1; untreated patient one, 10^-7 M, day 13 of culture
  HIV-1 RNA in culture supernatants, increase: 100%
HIV-1 proviral DNA; TT(+), V: 44.000, Day 3 of culture
  Log of proviral HIV DNA: 2 ± 0.3 Log copies [cp]/10^6 cells
HIV-1 proviral DNA; TT(+), V: 44.000, Day 6 of culture
  Log of proviral HIV DNA: 0.3 ± 0.1 Log copies [cp]/10^6 cells
HIV-1 proviral DNA; TT(+), V: 250, Day 3 of culture
  Log of proviral HIV DNA: 3 ± 0.2 Log copies [cp]/10^6 cells
HIV-1 proviral DNA; TT(+), V: 250, Day 6 of culture
  Log of proviral HIV DNA: 0.2 ± 0.1 Log copies [cp]/10^6 cells
HIV-1 proviral DNA; TT(−), V: 68.000, Day 3 of culture
  Log of proviral HIV DNA: 3.7 ± 0.2 Log copies [cp]/10^6 cells
HIV-1 proviral DNA; TT(−), V: 68.000, Day 6 of culture
  Log of proviral HIV DNA: 0.7 ± 0.1 Log copies [cp]/10^6 cells

## Cc1cn([C@H]2C[C@H](N=[N+]=[N-])[C@@H](CO)O2)c(=O)[nH]c1=O [AZT]
[3]; AZT 10 μg/ml
  effect on proliferation of the control cells: suppressor (antiproliferative) effect
[3]; Individual AR, AZT 1 μg/ml
  Cell survival rate (×100%): 5 ×100%
[3]; Individual AR, AZT 10 μg/ml
  Cell survival rate (×100%): 4 ×100%
[3]; Individual PE, AZT 10 μg/ml
  Cell survival rate (×100%): 3 ×100%
[3]; Individual PR, AZT 1 μg/ml
  Cell survival rate (×100%): 12 ×100%
[3]; Individual PR, AZT 10 μg/ml
  Cell survival rate (×100%): 13 ×100%
[3]; Individual beta, AZT 1 μg/ml
  Cell survival rate (×100%): 3 ×100%
[4]; Individual AR, AZT 1 μg/ml
  Viability % dead cells: 28%
[4]; Individual AR, AZT 10 μg/ml
  Viability % dead cells: 25%
[4]; Individual PR, AZT 1 μg/ml
  Viability % dead cells: 19%
[4]; Individual PR, AZT 10 μg/ml
  Viability % dead cells: 20%
[4]; Individual beta, AZT 1 μg/ml
  Viability % dead cells: 29%
[4]; Individual beta, AZT 10 μg/ml
  Viability % dead cells: 20%
HIV-1; AZT 1 μg/ml
  antiviral effect on the control cells: partial, or even equivalent
HIV-1; AZT 10 μg/ml
  antiviral effect: exerts an antiviral effect
HIV-1; Individual AR, AZT 1 μg/ml
  Viral RNA Number of copies/ml: 35 000 copies/ml
HIV-1; Individual AR, AZT 10 μg/ml
  Viral RNA Number of copies/ml: <100 copies/ml
HIV-1; Individual PR, AZT 1 μg/ml
  Viral RNA Number of copies/ml: 7000 copies/ml
HIV-1; Individual PR, AZT 10 μg/ml
  Viral RNA Number of copies/ml: <100 copies/ml
HIV-1 proviral DNA; Individual AR, AZT 1 μg/ml
  Proviral DNA Number of copies/10^6 cells: 6.1 Log copies/10^6 cells
HIV-1 proviral DNA; Individual AR, AZT 10 μg/ml
  Proviral DNA Number of copies/10^6 cells: 5.4 Log copies/10^6 cells
HIV-1 proviral DNA; Individual PR, AZT 1 μg/ml
  Proviral DNA Number of copies/10^6 cells: 4.9 Log copies/10^6 cells
HIV-1 proviral DNA; Individual PR, AZT 10 μg/ml
  Proviral DNA Number of copies/10^6 cells: 4.8 Log copies/10^6 cells
